These results are taken from US20100184178A1, “INCREASED ISOPRENE PRODUCTION USING MEVALONATE KINASE AND ISOPRENE SYNTHASE” (priority 2008, published 2010).

The subject of one data set is Escherichia coli BL21. As to the kind of experiment: Growth inhibition of Escherichia coli BL21 expressing MVK, PMK, MDD and fed MVA. The data set is classed as cell-based. The note with it: 5.8 mM MVA. As to the method: FIG. 145 is a graph of growth curves for cultures of BL21 expressing MVK, circles; MVK+PMV, triangles; MVK+PMV+MDD, squares. Cultures were either fed 5.8 mM MVA, filled symbols, or grown without addition of MVA, open symbols. Y-axis is OD600. Samples were taken for analysis at times indicated by the arrow. Numbers above the arrows correspond to E. coli BL21 cells bearing pTrcK, representing a plasmid expressing MVK (#5), pTrcKK representing a plasmid expressing MVK plus PMK (#7), and pTrcKKD, representing a plasmid expressing MVK plus PMK plus MDD (#6) were grown.
The purpose of this experiment was to determine the effect of the expression of the proteins mevalonate kinase (MVK), phophomevalonate kinase (PMK), and diphosphomevalonate decarboxylase (MDD) of Escherichia coli cultures.
E. coli BL21 cells bearing pTrcK, representing a plasmid expressing MVK, pTrcKK representing a plasmid expressing MVK plus PMK, and pTrcKKD, representing a plasmid expressing MVK plus PMK plus MDD were grown at approximately 30° C. and 250 rpm in 250 mL flasks containing 25 mL of TM3 medium (13.6 g K2PO4, 13.6 g KH2PO4, 2.0 g MgSO4*7H2O) supplemented with 1% glucose and 0.8 g/L Biospringer yeast extract (1% Yeast extract final). When OD600 reached 0.8 to 0.9, 5.8 mM mevalonic acid was added to the cultures and incubation was continues for an additional 5 hours. OD600 measurements were taken, and the cultures were sampled for metabolite analysis at 2 hours post MVA addition. Samples were collected into 100% MeOH prechilled in dry ice in a ratio of 1:1. Samples were stored at −80° C. until analyzed as follows. The methanol-quenched cells were pelleted by centrifugation and the resulting supernatant was loaded onto Strata-X-AW anion exchange column (Phenomenex) containing 30 mg of sorbent. The pellet was reextracted twice with several milliliters of 50%, v/v, aqueous methanol containing 20% ammonium bicarbonate buffer (pH=8.0) and then with 75%, v/v, aqueous bicarbonate-buffered methanol. […]

A short description of data set [1]: Flammability modeling (CAFT) and experimental flammability testing of isoprene. The data set is classed as physicochemical. The source says:
Thus, computer modeling and experimental testing were used to determine the flammability limits of isoprene (such as isoprene in the presence of O2, N2, CO2, or any combination of two or more of the foregoing gases) in order to ensure process safety. The flammability envelope is characterized by the lower flammability limit (LFL), the upper flammability limit (UFL), the limiting oxygen concentration (LOC), and the limiting temperature. For a system to be flammable, a minimum amount of fuel (such as isoprene) must be in the presence of a minimum amount of oxidant, typically oxygen. The LFL is the minimum amount of isoprene that must be present to sustain burning, while the UFL is the maximum amount of isoprene that can be present. Above this limit, the mixture is fuel rich and the fraction of oxygen is too low to have a flammable mixture. The LOC indicates the minimum fraction of oxygen that must also be present to have a flammable mixture. The limiting temperature is based on the flash point of isoprene and is that lowest temperature at which combustion of isoprene can propagate. […]
The LOC was determined to be 9.5 vol % for an isoprene, O2, N2, and CO2 mixture at 40° C. and 1 atmosphere. […]
Calculated adiabatic flame temperatures (CAFT) along with a selected limit flame temperature for combustion propagation were used to determine the flammability envelope for isoprene. […]

The conditions of data set [2]: about 1 atmosphere and about 60° F.; cited from earlier work.

On to `C[C@@](O)(CCO)CC(=O)O` [MVA, mevalonic acid], for which the “growth (OD600)” value in the data set with Escherichia coli BL21 (BL21 pTrcK, MVK only (strain #5)) is reported as “No growth inhibition was observed”; in the data set on Escherichia coli BL21 (BL21 pTrcKK, MVK plus PMK (strain #7)) it was “inhibition of growth was evident”; in the data set with Escherichia coli BL21 (BL21 pTrcKKD, MVK plus PMK plus MDD (strain #6)), “additional inhibition is observed”.
Consider `C=CC(=C)C` [isoprene, 2-methyl-1,3-butadiene], for which the “limiting oxygen concentration (LOC)” value in data set [1] (isoprene, O2, N2, and CO2 mixture at 40° C. and 1 atmosphere) is reported as 9.5 vol %. Besides, the limiting temperature result in data set [1] (lowest temperature at which combustion of isoprene can propagate) is “about −54 °C”.
For the molecule `CCO` [ethanol], in data set [2], the LFL result is listed as “about 3.3 vol %” and the LOC result was “about 8.7 vol %”.
